# Paper PMC8717366, “Synthesis and Pharmacological Characterization of Visabron, a Backbone Cyclic Peptide Dual Antagonist of α4β1 (VLA-4)/α9β1 Integrin for Therapy of Multiple Sclerosis” (JACS Au, 2021)
# Like-named read-outs stand apart in the source and are kept apart here. Numbered stars: 1 amine (or outer) side, 2 acyl side, 3 side chain; on linkers, the order of the positions; unused ones are H or OH. Bridge positions count the residues as written; N and C are the ends. Square brackets hold non-standard residues; d marks the D form. Peptide text beside a SMILES is read from it. CO = O=C([*:1])[*:2]; Nlys = NCCCCNCC(=O)O
# Key:
# [1] = 48 h
# Protocol: Eight-week-old C57Bl/6 mice were obtained from Envigo animal breeding center in Israel. All experiments were approved by the Institutional Animal Care and Use Committee, and performed according to OECD guidelines for chemical testing. One group of five mice (7683–87) received visabron c (4–4) by iv injection in a volume of 0.2 mL/mouse at a dose of 10 mg/mice (about 500 mg/kg), and another group of five mice (7688–92) received per-os visabron c (4–4) at a dose of 10 mg/mice, dissolved in a nanoemulsifying drug delivery system,[48] in a bolus of 0.4 mL/mouse. After 48 h of exposure, the animals were sacrificed and the organs were harvested for the detection of possible toxicological lesions in the framework of a safety assessment. Then the organs were fixed in 4% formaldehyde, trimmed in a standard position per organ, and transferred to embedding cassettes. Paraffin blocks were sectioned at approximately 3–5 μm thickness. The sections were applied on a glass slide and stained with hematoxylin and eosin (H&E). Pictures were taken on a microscope (Olympus BX60) at magnifications of X4 and X10 using the microscope’s camera (Olympus DP73). An experienced pathologist (Dr. Loeb Emanuel) examined the slides. Microscopically findings were classified with standard pathological nomenclature and the severity of the findings was graded on a scale of minimal, mild, or severe. Grades of severity for microscopic findings were subjective; minimal was the least extent discernible and severe was the greatest extent possible.
# Table S11. Histological pathological grades of organs slides obtained from mice treated for 48 h with 500 mg/kg Visabron c(4-4)*
# Number** Heart Lung Kidney Intestine Large Stomach Spleen Liver Brain […]
# *Grade 0: no signs of pathological changes; Grade 1: mild pathological changes; Grade 2: moderate pathological changes; Grade 3: severe pathological changes.
# C-Raf = molecular target: T1, C-Raf (Homo sapiens, UniProt P04049, Y340D/Y341D); experiment: PhosphoSens CSox-based kinase assay, C-Raf; format: biochemical; details: 1 mM, but not 0.1 mM; Figure 7
# T1 construct: purchased Thermo PV3805
# Protocol: (§1) Kinase activity was measured using the PhosphoSenstechnology (AssayQuant Technologies Inc., Marlborough, MA) as detailed in the Supporting Information. […]
# (§2) Visabron c (4-4) safety by in vitro evaluation using PhosphoSens - CSox based kinase assays:
# (§3) A powerful method was used to measure the activity of recombinant protein kinases using a homogeneous and continuous (kinetic) format, where the level of chelation-enhanced fluorescence (CHEF) that is directly proportional to the amount of phosphorylated, real-time sensors consisting of sulfonamido-oxine (Sox) chromophore, linked to a peptide or protein substrates of selective kinases 6. […]
# (§4) Kinase activity measurements: Kinase activity was measured continuously using the PhosphoSens® technology (AssayQuant Technologies Inc., Marlborough, MA) according to the manufacturers’ recommendations. This one-step homogeneous assay format uses chelation -enhanced fluorescence via optimized substrate sensors containing the unnatural fluorogenic amino -acid Sox. […]
# (§5) Final reaction conditions : Protein kinase activity was determined in 54 mM HEPES, pH 7.5, 1 mM ATP, 1.2 mM DTT, 0.012% Brij-35, 0.52 mM EGTA, 10 mM MgCl2, 1% glycerol, 0.2mg/ml BSA, and 15 μM Sox -based sensor. […]
# EGFR = molecular target: T2, EGFR (Homo sapiens, UniProt P00533); experiment: PhosphoSens CSox-based kinase assay, EGFR; format: biochemical; details: 1 mM, but not 0.1 mM; Figure 7
# T2 construct: purchased BPS BS 40187
# Protocol: as §1, §2, §3, §4, §5
# [2] = 500 mg/kg i.v., all five mice 7683-7687
# [3] = 500 mg/kg per os, all five mice 7688-7692
# T1 sequence (P04049 whole entry Y340D/Y341D): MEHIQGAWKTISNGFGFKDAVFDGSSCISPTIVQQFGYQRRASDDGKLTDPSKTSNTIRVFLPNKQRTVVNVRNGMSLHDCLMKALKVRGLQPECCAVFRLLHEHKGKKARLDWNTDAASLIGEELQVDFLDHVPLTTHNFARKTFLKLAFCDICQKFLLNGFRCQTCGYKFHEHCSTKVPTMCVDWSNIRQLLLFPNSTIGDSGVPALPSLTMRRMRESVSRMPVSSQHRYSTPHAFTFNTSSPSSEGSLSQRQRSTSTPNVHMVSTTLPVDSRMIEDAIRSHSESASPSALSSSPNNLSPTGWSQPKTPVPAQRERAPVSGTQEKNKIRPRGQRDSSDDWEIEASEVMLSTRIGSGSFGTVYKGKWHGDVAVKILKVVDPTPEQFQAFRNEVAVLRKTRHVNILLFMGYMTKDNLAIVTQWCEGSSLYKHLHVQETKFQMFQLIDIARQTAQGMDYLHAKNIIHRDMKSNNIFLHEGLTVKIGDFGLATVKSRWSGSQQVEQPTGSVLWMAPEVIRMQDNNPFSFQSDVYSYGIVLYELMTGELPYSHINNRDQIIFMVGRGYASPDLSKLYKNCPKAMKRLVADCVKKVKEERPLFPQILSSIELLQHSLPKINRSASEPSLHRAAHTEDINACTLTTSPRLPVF
# T2 sequence (P00533 25-1210): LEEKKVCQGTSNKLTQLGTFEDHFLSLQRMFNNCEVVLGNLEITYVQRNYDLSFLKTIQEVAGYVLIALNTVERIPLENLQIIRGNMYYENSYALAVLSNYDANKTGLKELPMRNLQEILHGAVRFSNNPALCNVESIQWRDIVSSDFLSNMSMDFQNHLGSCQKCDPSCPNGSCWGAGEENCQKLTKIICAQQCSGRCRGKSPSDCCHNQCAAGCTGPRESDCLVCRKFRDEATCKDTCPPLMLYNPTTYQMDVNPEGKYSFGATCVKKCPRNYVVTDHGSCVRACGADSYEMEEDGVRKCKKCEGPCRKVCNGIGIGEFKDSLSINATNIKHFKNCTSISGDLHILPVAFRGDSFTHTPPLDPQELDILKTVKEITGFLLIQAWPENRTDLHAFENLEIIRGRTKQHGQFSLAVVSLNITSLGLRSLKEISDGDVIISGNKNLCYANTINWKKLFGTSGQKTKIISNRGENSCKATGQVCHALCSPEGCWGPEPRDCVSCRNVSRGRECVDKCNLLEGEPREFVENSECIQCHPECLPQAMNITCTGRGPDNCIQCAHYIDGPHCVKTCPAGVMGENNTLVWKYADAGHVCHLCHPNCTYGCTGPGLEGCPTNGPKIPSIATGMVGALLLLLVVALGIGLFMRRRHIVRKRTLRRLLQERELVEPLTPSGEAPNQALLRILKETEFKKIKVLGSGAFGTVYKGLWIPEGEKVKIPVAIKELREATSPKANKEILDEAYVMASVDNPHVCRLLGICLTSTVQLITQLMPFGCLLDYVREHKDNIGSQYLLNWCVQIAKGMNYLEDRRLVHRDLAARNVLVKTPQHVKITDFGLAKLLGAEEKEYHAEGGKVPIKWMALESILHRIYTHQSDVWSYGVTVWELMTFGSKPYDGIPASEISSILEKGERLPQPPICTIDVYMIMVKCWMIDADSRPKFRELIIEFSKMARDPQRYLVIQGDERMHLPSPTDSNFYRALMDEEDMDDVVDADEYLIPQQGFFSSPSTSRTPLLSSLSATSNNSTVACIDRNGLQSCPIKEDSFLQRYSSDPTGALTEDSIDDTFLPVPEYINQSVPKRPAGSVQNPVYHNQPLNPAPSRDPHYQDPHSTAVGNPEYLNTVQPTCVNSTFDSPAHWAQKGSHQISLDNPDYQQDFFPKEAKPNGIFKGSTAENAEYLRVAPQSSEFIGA
smiles,measurement,setting,value
CSCC[C@@H]1NC(=O)[C@H]([C@@H](C)O)NC(=O)CN(C(=O)[C@@H](N)CCCCN)CCCCNC(=O)NCCCCN(CC(=O)N[C@@H](CC(C)C)C(N)=O)C(=O)[C@H](CC(=O)O)NC(=O)[C@H](CC(C)C)NC1=O [visabron c (4–4)] (H-K[Nlys]TMLD[Nlys]L-NH2; linker 2-7 via CO),"Histological pathological grade, Brain",[1]; [2],0
same,"Histological pathological grade, Heart",[1]; [2],0
same,"Histological pathological grade, Kidney",[1]; [2],0
same,"Histological pathological grade, Liver",[1]; [2],0
same,"Histological pathological grade, Lung",[1]; [2],0
same,"Histological pathological grade, Small Intestine",[1]; [2],0
same,"Histological pathological grade, Spleen",[1]; [2],0
same,"Histological pathological grade, Stomach",[1]; [2],0
same,"Histological pathological grade, Large Intestine","[1]; 500 mg/kg i.v., mouse 7683",0
same,"Histological pathological grade, Large Intestine","[1]; 500 mg/kg i.v., mouse 7684, finding considered accidental, most probably not related to the tested compound",3
same,"Histological pathological grade, Large Intestine","[1]; 500 mg/kg i.v., mouse 7685, finding considered accidental, most probably not related to the tested compound",3
same,"Histological pathological grade, Large Intestine","[1]; 500 mg/kg i.v., mouse 7686",0
same,"Histological pathological grade, Large Intestine","[1]; 500 mg/kg i.v., mouse 7687",0
same,"Histological pathological grade, Brain",[1]; [3],0
same,"Histological pathological grade, Heart",[1]; [3],0
same,"Histological pathological grade, Kidney",[1]; [3],0
same,"Histological pathological grade, Liver",[1]; [3],0
same,"Histological pathological grade, Lung",[1]; [3],0
same,"Histological pathological grade, Small Intestine",[1]; [3],0
same,"Histological pathological grade, Spleen",[1]; [3],0
same,"Histological pathological grade, Stomach",[1]; [3],0
same,"Histological pathological grade, Large Intestine","[1]; 500 mg/kg per os, mouse 7688",0
same,"Histological pathological grade, Large Intestine","[1]; 500 mg/kg per os, mouse 7689",0
same,"Histological pathological grade, Large Intestine","[1]; 500 mg/kg per os, mouse 7690, finding considered accidental, most probably not related to the tested compound",2
same,"Histological pathological grade, Large Intestine","[1]; 500 mg/kg per os, mouse 7691",0
same,"Histological pathological grade, Large Intestine","[1]; 500 mg/kg per os, mouse 7692",0
same,Short-term adverse pathological effects on major organs,"[1]; i.v. or per o.s., 500 mg/kg",without short-term adverse pathological effects
same,inhibition at 1000 µM,C-Raf,25 to 40%
same,inhibition at 1000 µM,EGFR,25 to 40%
